Calls of active or inactive are those of the source.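 How the source made its calls: active means activity score of at least 10, based on curve potency, or else summed standardized inhibition across doses; inactive means the rest.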
Tested on: HUVEC TNFa-induced p65 nuclear translocation, imaging
Assay: blockers of TNFa-triggered NFkappaB nuclear entry – imaging, HUVEC, TNFalpha stimulation, p65 immunofluorescence, confirmation (AID 462)
Conditions: not given
Molecule `O=S1(=O)Nc2c(ccc3cccnc23)-c2ccccc21` has an IC50 of 2070 nM.
`C=CS(=O)(=O)c1ccc(Oc2ccc(S(=O)(=O)C=C)cc2)cc1` showed an IC50 of 1460 nM.
With `C[C@H]1CCC/C=C/C2C[C@H](O)CC2[C@H](O)/C=C/C(=O)O1` (some centres not stated) the IC50 was 40 nM.

Tested on: not listed separately
Assay: as above
Conditions: HUVEC TNFa-induced p65 nuclear translocation, imaging; at 8 µM (top of the series)
With `COc1ccc(OC)c(NS(=O)(=O)c2ccc(N3CCCC3=O)cc2)c1` the inhibition was 15.5% (inactive).
With `CC(C)CCNC(=O)NC(=O)CSc1nnc(COc2ccccc2Cl)o1` the inhibition was -7.1% (inactive).
In the case of `COc1cc(C(O)c2nc3ccccc3n2C)cc(OC)c1OC` (configuration not stated), the inhibition is reported as -5.7% (inactive).
In the case of `COc1ccc(CC(=O)Nc2ccc(OC)c(NC(=O)c3ccco3)c2)cc1`, the inhibition is reported as -6.4% (inactive).
In the case of `O=C(CN(Cc1ccco1)C(=O)CNS(=O)(=O)c1ccc(Cl)cc1)NCc1ccc(F)cc1`, the inhibition is reported as -0.8% (inactive).
For `COC(=O)CCC(NC(=O)c1cc(-c2ccc3c(c2)OCCO3)oc1C)C(=O)OC` (configuration not stated), the inhibition was -1.9% (inactive).
For `COc1cc([C@@H]2c3cc4c(cc3[C@H](O)[C@H]3COC(=O)[C@H]23)OCO4)cc(OC)c1OC`, the inhibition was 26.3%.
With `Cc1cc(C(C)(C)C)c(O)c(C)c1CC1=NCCN1` the inhibition was 7.9% (inactive).
With `CC12C(=O)N(CCC(=O)O)C(=O)C1C1C=CC2C1` (configuration not stated) the inhibition was -5.1% (inactive).
For `Cc1cccc(N2CN=c3s/c(=C\c4ccncc4)c(=O)n3C2)c1`, the inhibition was -7.5% (inactive).
In the case of `CC(C)CNS(=O)(=O)c1ccc(CCC(=O)NCc2ccco2)cc1`, the inhibition is reported as -5.6% (inactive).
For `O=C(C1CCC(N2C(=O)C3CC=CCC3C2=O)CC1)N1CCCCC1` (configuration not stated), the inhibition was -2.3% (inactive).
For `Cc1ccc(Cn2ncc3c(N4CCN(Cc5ccc(Cl)cc5)CC4)ncnc32)cc1`, the inhibition was -0.2% (inactive).
With `COc1ccc(S(=O)(=O)N2CCCC2C(=O)Nc2ccc(C)cc2)cc1` (configuration not stated) the inhibition was -0.4% (inactive).
In the case of `CCOc1cc(C2C(C#N)=C(N)Oc3n[nH]c(CC)c32)ccc1OCCN1CCOCC1` (configuration not stated), the inhibition is reported as -2.3% (inactive).
With `Cn1c(=O)c2c(nc(CN3CCOCC3)n2CC(O)CO)n(C)c1=O` (configuration not stated) the inhibition was 3.2% (inactive).
In the case of `COc1ccccc1CNC(=O)C1CCCN(S(=O)(=O)c2cnc[nH]2)C1` (configuration not stated), the inhibition is reported as -1.1% (inactive).
In the case of `N#Cc1c(N)n(CCOC(=O)c2ccc(Cl)cc2)c2nc3ccccc3nc12`, the inhibition is reported as 6.7% (inactive).
In the case of `Cn1c(C(=O)NCCC2=CCCCC2)cc2c(=O)n3ccccc3nc21`, the inhibition is reported as -8% (inactive).
With `CCOC(=O)c1cc2c(=O)n3cccc(C)c3nc2n(CCc2ccccc2)c1=N` the inhibition was 17.3% (inactive).
For `COc1ccc(/C(O)=C2/C(=O)C(=O)N(Cc3ccco3)C2c2cccs2)cc1` (configuration not stated), the inhibition was 4.7% (inactive).
For `CCC1Oc2ccccc2N(CC(=O)Nc2ccc(OC)cc2OC)C1=O` (configuration not stated), the inhibition was -5% (inactive).
With `CCOc1ccccc1C(=O)N1CCN(c2cccc(Cl)c2)CC1` the inhibition was 18.5% (inactive).
In the case of `Cc1cc(C)n(CC2CC(=O)N(c3cc(Cl)cc(Cl)c3)C2=O)n1` (configuration not stated), the inhibition is reported as 6.8% (inactive).
For `COc1cc(C2C(C#N)=C(N)Oc3cc(N)ccc32)cc(OC)c1OC` (configuration not stated), the inhibition was 23.6% (inactive).
For `c1cncc(C2Nc3ccccc3-c3nc4ccccc4n32)c1` (configuration not stated), the inhibition was -5% (inactive).
In the case of `COc1ccc(CNC(=O)COC(=O)c2n[nH]c3ccccc23)cc1OC`, the inhibition is reported as -3.8% (inactive).
In the case of `COc1ccc(N(C)C(=O)CCS(=O)(=O)c2cccc3nonc23)cc1`, the inhibition is reported as -0.8% (inactive).
With `O=C(NCCCN1CCCC1=O)C1CCN(S(=O)(=O)N2CCOCC2)CC1` the inhibition was -10% (inactive).
For `COC(=O)c1ccc(N2C(=O)CC(N3CCN(C(=O)c4ccco4)CC3)C2=O)cc1` (configuration not stated), the inhibition was 11.1% (inactive).
In the case of `COc1ccc(N2CCN(CCCNC(=O)C3CCCN(S(=O)(=O)c4cnc[nH]4)C3)CC2)cc1` (configuration not stated), the inhibition is reported as 3.2% (inactive).
For `O=C(O)c1ccc(COCC(F)(F)C(F)F)o1`, the inhibition was 7.3% (inactive).
With `Cc1nn(Cc2ccccc2)c(C)c1NC(=O)CCC(=O)O` the inhibition was -7.5% (inactive).
For `CCn1c(C(=O)N2CCCC(C(=O)O)C2)cc2sccc21` (configuration not stated), the inhibition was 1.8% (inactive).
For `CN1CCN(c2oc(COc3ccc(-c4ccccc4)cc3)nc2C#N)CC1`, the inhibition was 2.4% (inactive).
For `CCN1C(=C2C(=O)c3ccccc3C2=O)C=Cc2ccccc21`, the inhibition was -5% (inactive).
In the case of `O=C(Nc1ccc2oc(-c3ccncc3)nc2c1)c1cccs1`, the inhibition is reported as 0.6% (inactive).
In the case of `CCOc1ccc(C2=Nn3c(nnc3-c3ccccc3OC)SC2)cc1`, the inhibition is reported as 19.7%.
For `O=C1[C@@H]2C(c3ccccc3Cl)=NO[C@@H]2C(=O)N1Cc1ccccc1`, the inhibition was 0% (inactive).
With `CN(C(=O)COc1cc(=O)n(C)c2ccccc12)c1ccc(Br)cc1` the inhibition was 2.8% (inactive).
In the case of `COC(=O)CCC(=O)Nc1cccc(Cl)c1`, the inhibition is reported as -0.6% (inactive).
In the case of `Cc1nc(NC2=NCN(CCc3ccccc3)CN2)nc2c(C)cccc12`, the inhibition is reported as 1% (inactive).
For `CCOc1ccc(S(=O)(=O)N(C)C)cc1-c1nc2c(C(C)(C)C)nn(C)c2c(=O)[nH]1`, the inhibition was -7.2% (inactive).
With `Nn1c(SCC(=O)Nc2ccc(F)cc2)nnc1-c1cccnc1` the inhibition was -0.4% (inactive).
In the case of `CC[C@]1(O)CC2CN(CCc3c([nH]c4ccccc34)[C@@](C(=O)OC)(c3cc4c(cc3OC)N(C=O)[C@H]3[C@@](O)(C(=O)OC)[C@H](OC(C)=O)[C@]5(CC)C=CCN6CC[C@]43[C@@H]65)C2)C1` (some centres not stated), the inhibition is reported as 17.2%.
In the case of `Nc1nc(C(=O)N2CCOCC2)nn1S(=O)(=O)c1ccc(Cl)cc1`, the inhibition is reported as -1.1% (inactive).
In the case of `COc1ccccc1CN1CC(C(=O)N2CCN(c3ccc(F)cc3)CC2)CC1=O` (configuration not stated), the inhibition is reported as 1.4% (inactive).
For `COc1ccc(C(NC(=O)c2ccco2)c2ccc(OC)c(OC)c2)cc1` (configuration not stated), the inhibition was -3.1% (inactive).
In the case of `COc1ccc(-n2c(Cc3cccn3C)nnc2SCC(=O)Nc2cccc(Cl)c2)cc1`, the inhibition is reported as 3.9% (inactive).
With `CCC(NC(=O)Nc1nnc(C(F)(F)F)s1)(C(F)(F)F)C(F)(F)F` the inhibition was -22.3% (inactive).
For `CCCCOc1ccc(-c2nnn(CC(=O)Nc3ncc(CC(=O)OCC)s3)n2)cc1`, the inhibition was -1.5% (inactive).
For `CC1=CC2=C(OC1N(C)C)c1cccc3cccc(c13)C2=O` (configuration not stated), the inhibition was 5.4% (inactive).
With `COc1ccc(OCC(=O)OCCN(C)C)cc1` the inhibition was 6.8% (inactive).
With `COc1ccc(OC)c(C2C(C#N)=C(N)Oc3cc(C)n(Cc4ccccn4)c(=O)c32)c1` (configuration not stated) the inhibition was 4.2% (inactive).
Molecule `COc1cccc(N2CCN(c3ncnc4c3[nH]c3ccccc34)CC2C)c1` (configuration not stated) has an inhibition of 66.1%.
In the case of `CCOC(=O)CCNc1n[nH]c(=O)[nH]c1=O`, the inhibition is reported as 14.4% (inactive).
With `Clc1ccc(-c2nnc3sc(-c4ccc(Br)o4)nn23)cc1` the inhibition was 3.4% (inactive).
With `CCn1c(CSc2ncccn2)nnc1SCC(=O)N1c2ccccc2CC1C` (configuration not stated) the inhibition was -6.1% (inactive).
For `O=C(CSc1nnc(SCc2ccc(Cl)cc2)s1)N1CCN(C(=O)c2ccco2)CC1`, the inhibition was 5.9% (inactive).
With `O=C(CSc1nnc2ncccn12)N1CCCCCC1` the inhibition was -3.2% (inactive).
For `Cc1ccccc1CN1CCNC1=O`, the inhibition was -8% (inactive).
In the case of `CC(C)OC(=O)CSc1nnc(Cc2ccccc2)n1Cc1ccco1`, the inhibition is reported as -1.5% (inactive).
For `Cc1c(C2Nc3ccccc3NC3=C2C(=O)CC(C)(C)C3)cnn1C` (configuration not stated), the inhibition was 4.8% (inactive).
For `O=C(COc1ccc2ccccc2c1)N1CCN(C2CCN(Cc3ccccc3)CC2)CC1`, the inhibition was 3.5% (inactive).
With `Cc1csc(SCCn2c(N3CCCC3)nc3c2c(=O)[nH]c(=O)n3C)n1` the inhibition was -7.5% (inactive).
In the case of `COc1ccccc1-c1nnc2n1N=C(c1ccc(O)c(O)c1)CS2`, the inhibition is reported as 23% (inactive).
In the case of `Cc1ccc(-n2c(=O)[nH]c3c(C(N)=O)nc(CC(C)C)nc32)cc1`, the inhibition is reported as -5.2% (inactive).
With `COc1cc(C)nc(OCCNC(=O)COc2ccc(Cl)cc2C)n1` the inhibition was 0.4% (inactive).
In the case of `COc1ccc(-c2nc3c(c(SCC(=O)N4CCOCC4)n2)COC(C)(C)C3)cc1`, the inhibition is reported as 1.1% (inactive).
With `Cc1nc(N)[nH]c(=O)c1CCC(=O)OCC(C)C` the inhibition was 0% (inactive).
With `COc1ccc2c(c1)[nH]c1c(=O)n(CC3CCCO3)cnc12` (configuration not stated) the inhibition was -2.7% (inactive).
In the case of `CC1CCCCN1CCNC(=O)c1ccc2c(=O)n(CCc3ccccc3)c(=O)[nH]c2c1` (configuration not stated), the inhibition is reported as 4.4% (inactive).
For `O=C(COC(=O)c1ccccc1Oc1ccccc1)NC1CCS(=O)(=O)C1` (configuration not stated), the inhibition was -1.2% (inactive).
For `CCn1c(C(C#N)/C(=N\S(=O)(=O)c2cccs2)c2ccccc2)nc2ccccc21` (configuration not stated), the inhibition was -1.6% (inactive).

— PubChem BioAssay AID462 (Columbia University Molecular Screening Center, 2006)
